In US20250099475A1, “METHODS OF TREATING HYPERTENSION BY PERIODIC SUPPRESSION OF ALDOSTERONE SYNTHASE” (Mineralys Therapeutics, Inc., priority 2022, published 2025):
Like-named read-outs stand apart in the source and are kept apart here.

Assays:
[1] = molecular target: T1, CYP 11β2 beta hydroxylase (Homo sapiens, UniProt P19099); experiment: PKPD modeling of SAD study data: time above IC50; format: in vivo; settings: aldosterone
T1 construct: estimated based on PKPD modeling of data from the SAD study; from tissue; host or cells: adrenal cortex of human study subjects (in vivo)
T1 sequence (P19099 25-503): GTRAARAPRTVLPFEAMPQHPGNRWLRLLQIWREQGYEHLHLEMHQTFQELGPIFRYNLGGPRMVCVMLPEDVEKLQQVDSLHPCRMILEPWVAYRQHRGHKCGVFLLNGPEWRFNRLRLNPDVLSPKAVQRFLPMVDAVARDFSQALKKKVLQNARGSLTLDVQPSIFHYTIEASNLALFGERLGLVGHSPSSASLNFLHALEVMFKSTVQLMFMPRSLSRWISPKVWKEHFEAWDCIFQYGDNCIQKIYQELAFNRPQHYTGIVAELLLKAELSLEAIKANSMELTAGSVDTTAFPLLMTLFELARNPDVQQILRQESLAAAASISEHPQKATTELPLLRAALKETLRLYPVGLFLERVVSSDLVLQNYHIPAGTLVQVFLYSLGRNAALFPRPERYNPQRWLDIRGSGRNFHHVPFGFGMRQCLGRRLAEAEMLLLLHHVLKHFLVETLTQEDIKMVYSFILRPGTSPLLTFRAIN
Protocol: A randomized, double-blinded, placebo-controlled study was conducted in which 116 patients were randomized and 87 received Compound A HBr.
A single ascending dose (SAD) study was conducted with the following dosing amounts tested: • (a) 5 mg • (b) 10 mg • (c) 20 mg • (d) 50 mg • (e) 100 mg • (f) 200 mg • (g) 400 mg • (h) 800 mg.
The IC50 of inhibition of CYP […] by Compound A HBr and the time above IC50 for each dosing amount were estimated based on PKPD modeling of data from the SAD study.

[2] = Phase 1 part 1 single ascending dose: pharmacokinetics; format: in vivo, human; settings: for half-life / Tmax: male, human, plasma, oral
Protocol: A 4-part, Phase 1 randomized, double-blind, placebo-controlled, first-in-human study was performed to determine the safety, tolerability, PK, and PD of single ascending doses (SADs; part 1) and multiple ascending doses (MADs; part 2) of Compound A HBr in healthy participants. The study also assessed whether there were sex (part 3) and age-related (part 4) effects on the PK of a single dose of Compound A HBr. The study was approved by the local independent ethics committee; the BEBO foundation in Assen, Netherlands; and the Central Committee on Research Involving Human Subjects in The Hague, Netherlands; and conducted according to the provisions of the Declaration of Helsinki. Written informed consent was obtained from each study participant before conducting any protocol-related procedures.
In part 1, Compound A HBr or placebo was administered to 64 healthy Caucasian men aged 18 to 55 years (inclusive) in 8 cohorts of 8 participants each. In each cohort, 6 participants were randomized to receive a single dose of Compound A HBr and 2 participants were randomized to receive matching placebo. All cohorts included 2 sentinel participants of whom 1 received Compound A HBr and 1 received matching placebo. The remaining 6 participants, of whom 5 received Compound A HBr and 1 received placebo, were dosed ≥24 hours following the sentinel participants. The dosing cohorts were 5, 10, 20, 50, 100, 200, 400, and 800 mg. Doses were administered in an ascending order per cohort, with a minimum 10-day interval between consecutive dose levels. Participants received a single dose of Compound A HBr or placebo in the fasted state.
Plasma PK parameters were derived by non-compartmental analysis using WinNonlin® (version 6.3). Dose proportionality was assessed using the power model with AUC0-∞, AUC0-last, and Cmax for part 1 (SAD) and with AUC0-last, AUC0-∞, AUC0-τ, and Cmax for part 2 (MAD). A linear model (ln(Y)=α+β×ln(X), where Y is the pharmacokinetic parameter and X is the dose) was used to fit the power model, after log-transformation of the parameters. Dose proportionality was concluded if the 95% confidence interval (CI) for slope (β) included the value 1.
An analytical method for the determination of Compound A in human plasma (dipotassium ethylenediaminetetraacetic acid [K2-EDTA]) and human urine using solid-phase extraction and high-performance liquid chromatography with mass spectrometric detection was successfully validated over the concentration range 0.1000 ng/mL (lower limit of quantification) to 100.0 ng/mL prior to initiation of the clinical trial. […] For all other analytes, validated quantitative measurement methods were used.

[3] = system: plasma aldosterone concentrations (PACs); experiment: Sodium-depleted cynomolgus monkey model; format: in vivo; settings: single oral administration
Protocol: A sodium-depleted cynomolgus monkey model with secondary hyperaldosteronism was performed to evaluate the effect of Compound A on plasma aldosterone concentrations (PACs). The model used a low-sodium diet and 3 doses of 5 mg/kg furosemide. Two animals each were assigned to 6 groups consisting of a vehicle group and 5 Compound A (free base) groups (0.3, 1, 3, 10, and 30 mg/kg). Six crossovers were performed so that every animal was assigned to each group. Hyperaldosteronism was induced once every 3 weeks. PAC was determined by radioimmunoassay and measured during the 24 hours after Compound A administration.

## CC(=O)N[C@H]1CC[C@H](NC(=O)CN2CCN(c3nncc(-c4ccc(C)cc4)n3)CC2)CC1 [Compound A HBr]
[1]; 12.5 mg BID
  % 24 hr above IC50: 25%
[1]; 12.5 mg QD
  % 24 hr above IC50: 8%
[1]; 25 mg BID
  % 24 hr above IC50: 52%
[1]; 50 mg QD
  % 24 hr above IC50: 38%
[1]; 100 mg QD
  % 24 hr above IC50: 56%
[2]; single 5 mg, fasted, read-out: T 1/2, mean (SD) (converted)
  half-life: 8 h
[2]; single 10 mg, fasted, read-out: T 1/2, mean (SD) (converted)
  half-life: 8 h
[2]; single 10 mg, fasted, read-out: Tmax, median and range
  Tmax: 1.25 h
[2]; single 200 mg, fasted, read-out: Tmax, median and range
  Tmax: 1.25 h
[2]; single 400 mg, fasted, read-out: Tmax, median and range
  Tmax: 1.25 h
[2]; single 800 mg, fasted, read-out: T 1/2, mean (SD) (converted)
  half-life: 11 h
[2]; single doses 5 to 800 mg, read-out: Median Tmax values
  Tmax: 1 to 1.5 h
[2]; single doses 5 to 800 mg, read-out: mean t1/2 values
  half-life: 7.92 to 10.5 h
[2]; single 5 mg, fasted
  AUC0-inf, mean (SD): 231 (25) ng × h/mL
  Cmax, mean (SD): 37 (7) ng/mL
  Tmax, median and range: 1.5 (1-3) h
[2]; single 10 mg, fasted
  AUC0-inf, mean (SD): 451 (46) ng × h/mL
  Cmax, mean (SD): 76 (20) ng/mL
[2]; single 20 mg, fasted
  AUC0-inf, mean (SD): 768 (182) ng × h/mL
  Cmax, mean (SD): 141 (76) ng/mL
  Tmax, median and range: 1.5 (1-3) h
[2]; single 50 mg, fasted
  AUC0-inf, mean (SD): 2155 (258) ng × h/mL
  Cmax, mean (SD): 573 (206) ng/mL
  T 1/2, mean (SD): 9 (2) h
  Tmax, median and range: 1 (0.5-3) h
[2]; single 100 mg, fasted
  AUC0-inf, mean (SD): 5366 (493) ng × h/mL
  Cmax, mean (SD): 1211 (248) ng/mL
  Tmax, median and range: 1.5 (1-3) h
[2]; single 200 mg, fasted
  AUC0-inf, mean (SD): 10645 (3486) ng × h/mL
  Cmax, mean (SD): 2848 (1015) ng/mL
  T 1/2, mean (SD): 10 (4) h
[2]; single 400 mg, fasted
  AUC0-inf, mean (SD): 17257 (2907) ng × h/mL
  Cmax, mean (SD): 4455 (862) ng/mL
[2]; single 800 mg, fasted
  AUC0-inf, mean (SD): 29331 (3623) ng × h/mL
  Cmax, mean (SD): 7708 (1617) ng/mL
  Tmax, median and range: 1.5 (0.5-4) h
[2]; single doses 5 to 800 mg
  dose proportionality of AUC0-last and AUC0-∞: dose-proportional increase

## CC(=O)N[C@H]1CC[C@H](NC(=O)CN2CCN(c3nncc(-c4ccc(C)cc4)n3)CC2)CC1 [Compound A]
[3]
  effect on PAC: significantly decreased PAC
